Results taken from patent publication US20110130346A1, “PEPTIDE CONJUGATES FOR DELVERY OF BIOLOGICALLY ACTIVE COMPOUNDS” (ISIS INNOVATION LIMITED, priority 2008, published 2011).

Columns and labels:
[1] = system: exon and intron 23 of the dystrophin gene; test: Example 2: intramuscular injection, nested RT-PCR of exon skipping; type: in vivo, mdx mice; conditions: 5 ug intramuscular, 4 weeks after injection (peak)
Method: Total RNA was extracted from tested muscle tissues with Trizol (Invitrogen, UK) and 200 ng of RNA template was used for 20 μl RT-PCR with OneStep RT-PCR kit (Qiagen, UK). The primer sequences for the initial RT-PCR were Exon20Fo 5′-[…]-3′ and Ex26Ro 5′-[…]-3′ for amplification of messenger RNA from exons 20 to 26. The cycle conditions were 95° C. for 30 seconds, 55° C. for 1 minute and 72° C. for 2 minutes for 25 cycles. RT-PCR product (1 μl) was then used as the template for secondary PCR performed in […] with 0.5 U Taq DNA polymerase (Invitrogen, UK). The primer sequences for the second round were Ex20Fi 5′-[…]-3′ and Ex24Ri 5′-[…]-3. The cycle conditions were 95° C. for 1 minute, 57° C. for 1 minute, and 72° C. for 2 min for 25 cycles. The products were examined by electrophoresis on a 2% agarose gel.
For intramuscular studies the TA muscle of each experimental mdx mouse was injected with a […] dose of PNA and PNA-peptide conjugates with saline at a final concentration of 125 μg/ml. For systemic intravenous injections, Various amount of PNA or PNA-peptide conjugates in 80 μl saline buffer were injected into tail vein of mdx mice at the final dose of 25 mg/kg, 50 mg/kg and 100 mg/kg, respectively. The animals were killed at various time points after injection by CO2 inhalation and tissues were removed and snap-frozen in liquid nitrogen-cooled isopentane and stored at −80° C.

[2] = Example 2: serum creatine kinase and AST/ALT after systemic injection; type: in vivo, mdx mice; conditions: intravenous 25, 50 and 100 mg/kg
Source text: (§1) To develop AO splice correction therapy for DMD it is essential to establish effective systemic dystrophin correction since DMD is a systemic disease affecting all skeletal muscles, including the diaphragm, and cardiac muscle. Other AO chemistries, including 2′OMePS and PMO chemistries, have been reported to yield variable dystrophin splice correction following intravenous systemic delivery in mdx mice, with high systemic doses being required to detect appreciable efficacy. Here we wished to evaluate the potential of neutral PNA AOs for systemic splice correction in body-wide muscles, and initially evaluated a dose-response using three intravenous single PNA doses of 25, 50 and 100 mg/kg administered to 6 week old mdx mice via tail vein injections. Dystrophin expression was studied by immunostaining of muscle tissue sections from various peripheral muscles (including quadriceps, gastrocnemius, biceps, abdominal wall, diaphragm) and heart muscle three weeks after AO administration (FIG. 7A). […] Measures of phenotypic correction, including serum biochemical measurements of creatine kinase and AST/ALT enzyme levels were negative (FIGS. 7C and D).
Serum and plasma were taken from the mouse jugular vein immediately after the killing with CO2 inhalation. […]

[3] = system: H2K mdx cells; test: WST-1 cell viability assay in H2K mdx cells; type: cell-based, mouse; conditions: 2.5 μM to 25 μM, 12 hours
Method: The possible toxicity of the PNA-peptide conjugates in H2K mdx cells was examined using a WST-1 assay, which measures the metabolic activity of viable cells. Cells were grown in 96-well microplates overnight and treated with unmodified PNA as a control or PNA-peptide conjugates for 12 hours, and then incubated with WST-1 for approximately 4 hours. During this incubation period, viable cells convert WST-1 to a water-soluble formazan dye which is then quantified using an ELISA plate reader.

[4] = system: exon and intron 23 of the dystrophin gene; test: Example 2: systemic intravenous tail vein injection, dystrophin immunostaining of muscles; type: in vivo, mdx mice
Source text: To develop AO splice correction therapy for DMD it is essential to establish effective systemic dystrophin correction since DMD is a systemic disease affecting all skeletal muscles, including the diaphragm, and cardiac muscle. Other AO chemistries, including 2′OMePS and PMO chemistries, have been reported to yield variable dystrophin splice correction following intravenous systemic delivery in mdx mice, with high systemic doses being required to detect appreciable efficacy. Here we wished to evaluate the potential of neutral PNA AOs for systemic splice correction in body-wide muscles, and initially evaluated a dose-response using three intravenous single PNA doses of 25, 50 and 100 mg/kg administered to 6 week old mdx mice via tail vein injections. […]
Sections of 8 μm were cut from at least two-thirds of the muscle length of TA, quadriceps, gastrocnemius, biceps, abdominal wall and diaphragm muscles and cardiac muscle at 100 μm intervals. […] The maximum number of dystrophin-positive fibres in one section was counted using the Zeiss AxioVision fluorescence microscope. […] Polyclonal antibodies were detected by goat-anti-rabbit IgGs Alexa Fluro 594 (Molecular Probe, UK). Polyclonal antibodies were detected by goat-anti-rabbit IgGs Alexa 594 (Molecular Probe, UK).

[5] = system: exon and intron 23 of the dystrophin gene; test: Example 3: intramuscular injection of glucose-formulated AOs, dystrophin-positive myofibres by immunohistochemistry; type: in vivo; conditions: intramuscular into TA, 8 week old mdx mice, two weeks
Method: Here we study a novel delivery glucose formulation by evaluating it via local intramuscular injection into the mdx mouse tibialis anterior (TA) muscle. Initial experiments were performed in 6-8 week old mdx mice (referred to as 8 weeks) by treatment with a single dose of 5 ug of 2′OMePS AO formulated in 5% glucose. In a parallel control study, age-matched control mdx mice were treated with the same AO dose formulated in standard saline buffer.
For intramuscular studies the TA muscle of each experimental mdx mouse was injected with a 40 μl dose of PNA and PNA-peptide conjugates with saline at a final concentration of 125 μg/ml, and the contralateral muscle was injected with saline. […]
Sections of 8 μm were cut from at least two-thirds of the muscle length of TA, quadriceps, gastrocnemius, biceps, abdominal wall and diaphragm muscles and cardiac muscle at 100 μm intervals. […] The maximum number of dystrophin-positive fibres in one section was counted using the Zeiss AxioVision fluorescence microscope. […] Polyclonal antibodies were detected by goat-anti-rabbit IgGs Alexa Fluro 594 (Molecular Probe, UK). […] Polyclonal antibodies were detected by goat-anti-rabbit IgGs Alexa 594 and the monoclonal antibodies by goat-anti-mouse IgGs Alexa 594 (Molecular Probe, UK). […]

[6] = system: exon and intron 23 of the dystrophin gene; test: Example 2: systemic intravenous injection, RT-PCR of exon skipping; type: in vivo, mdx mice; conditions: intravenous 25, 50 and 100 mg/kg; gastrocnemius and abdominal muscles, not other muscles
Source text: as §1
Total RNA was extracted from tested muscle tissues with Trizol (Invitrogen, UK) and 200 ng of RNA template was used for 20 μl RT-PCR with OneStep RT-PCR kit (Qiagen, UK). […]

## 5′-ggccaaaccteggcttacct-3′ [PNA]
[1]
  targeted dystrophin transcripts showing splice correction (RT-PCR): about 50%
[2]
  phenotypic correction: serum creatine kinase and AST/ALT enzyme levels: negative
[3]
  Toxicity or inhibition of cell proliferation (WST-1): not observed
[4]; intravenous 25, 50 and 100 mg/kg
  dose response of dystrophin positive fibres: No evidence of a dose response
[4]; single intravenous 25, 50 and 100 mg/kg, 6 week old mdx mice, three weeks, all muscle groups except diaphragm and heart
  number of dystrophin positive fibres in peripheral muscles and heart: low nevertheless showing a significant increase
[5]
  dystrophin-positive myofibres, 5% glucose formulation compared with saline formulation: significant improvement
[6]
  exon skipping (RT-PCR): only very level of exon skipping
